The supplement of paper PMC10331698
± gives the standard deviation of the averaged measurements.

Tests used:
Test in all cases: level (log10 ratio to DMSO vehicle control); higher = higher biomarker level / cell amount than vehicle control
[1] = compound: OCC(F)(F)C(F)(F)C(F)(F)C(F)F [1H,1H,5H-Perfluoropentanol] (in DMSO)
Protocol: (§1)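 BioMAP Diversity Plus panel of 12 human primary cell co-culture systems (3C, 4H, LPS, SAg, BT, BF4T, BE3C, CASM3C, HDF3CGF, KF3CT, MyoF, Mphg). Compounds were added 1 h before stimulation and left for 24 h (MyoF 48 h; BT 72 h for soluble read-outs or 6 d for IgG). Biomarkers were read by ELISA, cytotoxicity by SRB, PBMC viability and proliferation by Alamar Blue. Each well value was divided by the mean of 8 DMSO control wells on the same plate and log10 transformed; duplicate blinded samples were tested at 4 concentrations.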

[2] = compound: OCC(F)(F)C(F)(F)C(F)(F)C(F)(F)C(F)(F)C(F)(F)CO [1H,1H,8H,8H-Perfluorooctane-1,8-diol] (in DMSO)
Protocol: as §1

[3] = compound: O=S(=O)(O)CCC(F)(F)C(F)(F)C(F)(F)C(F)(F)C(F)(F)C(F)(F)C(F)(F)C(F)(F)F [8:2 Fluorotelomer sulfonic acid] (in DMSO)
Protocol: as §1

[4] = compound: C[C@@H]1C[C@H]2[C@@H]3CCC4=CC(=O)C=C[C@]4(C)[C@@]3(F)[C@@H](O)C[C@]2(C)[C@@]1(O)C(=O)COP(=O)(O)O [Dexamethasone sodium phosphate] (in DMSO)
Protocol: as §1

[5] = compound: CCOC(=O)CC(=O)C(F)(F)C(F)(F)F [Ethyl pentafluoropropionyl acetate] (in DMSO)
Protocol: as §1

Octafluoroadipic acid = compound: O=C(O)C(F)(F)C(F)(F)C(F)(F)C(F)(F)C(=O)O [Octafluoroadipic acid] (in DMSO)
Protocol: as §1

[6] = compound: O=C(O)C(F)(F)OC(F)(F)C(F)(F)OC(F)(F)C(F)(F)OC(F)(F)C(F)(F)C(F)(F)C(F)(F)F [Perfluoro-3,6,9-trioxatridecanoic acid] (in DMSO); conditions: 6700 nM
Protocol: as §1

Test System	level (log10) ([1]; 6700 nM)	level (log10) ([1]; 20000 nM)	level (log10) ([1]; 60000 nM)	level (log10) ([2]; 6700 nM)	level (log10) ([2]; 20000 nM)	level (log10) ([2]; 60000 nM)	level (log10) ([3]; 6700 nM)	level (log10) ([3]; 20000 nM)	level (log10) ([3]; 60000 nM)	level (log10) ([4]; 1500 nM)	level (log10) ([4]; 4400 nM)	level (log10) ([4]; 13000 nM)	level (log10) ([4]; 40000 nM)	level (log10) ([5]; 6700 nM)	level (log10) ([5]; 20000 nM)	level (log10) ([5]; 60000 nM)	level (log10) (Octafluoroadipic acid; 6700 nM)	level (log10) (Octafluoroadipic acid; 20000 nM)	level (log10) (Octafluoroadipic acid; 60000 nM)	level (log10) [6]
HDF3CGF:CXCL9/MIG	0.0035 ± 0.0021	0.0025 ± 0.025	-0.0105 ± 0.022	0.0025 ± 0.0021	0.045 ± 0.011	0.0245 ± 0.056	-0.048 ± 0.034	-0.0575 ± 0.04	0.061 ± 0.034	0.042 ± 0.037	0.067 ± 0.018	0.0555 ± 0.029	0.0435 ± 0.042	0.001 ± 0.0042	-0.013 ± 0.0085	-0.0185 ± 0.005	0.009 ± 0.0028	0.007 ± 0.018	-0.0055 ± 0.015	-0.196 ± 0.0035
HDF3CGF:CXCL10/IP-10	-0.0255 ± 0.019	0.0095 ± 0.0021	0.005 ± 0.018	-0.01 ± 0.014	0.018 ± 0.027	0.021 ± 0.034	-0.014 ± 0.0014	-0.0315 ± 0.0092	-0.06 ± 0.016	0.034 ± 0.025	0.0615 ± 0.052	0.06 ± 0.057	0.009 ± 0.072	-0.0125 ± 0.015	-0.0105 ± 0.022	-0.046 ± 0.0085	0 ± 0.0057	-0.005 ± 0.0028	0.001 ± 0.0085	-0.3805 ± 0.00071
HDF3CGF:CXCL11/I-TAC	-0.0425 ± 0.028	-0.023 ± 0.093	0.004 ± 0.051	0.0145 ± 0.016	0.027 ± 0.017	0.017 ± 0.013	-0.053 ± 0.027	-0.0285 ± 0.03	-0.0865 ± 0.067	0.0425 ± 0.00071	0.079 ± 0.082	0.0905 ± 0.012	0.0355 ± 0.087	-0.0175 ± 0.029	-0.026 ± 0.037	-0.0425 ± 0.021	-0.008 ± 0.018	-0.005 ± 0.0085	-0.002 ± 0.0042	-0.149 ± 0.013
HDF3CGF:Collagen I	-0.0375 ± 0.039	-0.0305 ± 0.037	0.0585 ± 0.021	0.0025 ± 0.012	0.025 ± 0.016	0.0085 ± 0.035	0.007 ± 0.038	0.0195 ± 0.049	-0.0455 ± 0.17	-0.0005 ± 0.1	-0.016 ± 0.047	-0.0155 ± 0.023	0.0075 ± 0.005	-0.0205 ± 0.021	-0.003 ± 0.051	-0.0355 ± 0.0092	-0.008 ± 0.059	-0.011 ± 0.024	0.042 ± 0.021	-0.0565 ± 0.061
HDF3CGF:Collagen III	-0.0215 ± 0.036	-0.0135 ± 0.019	0.037 ± 0.027	-0.0175 ± 0.013	-0.0195 ± 0.0092	-0.016 ± 0.0057	0.05 ± 0.014	0.0975 ± 0.0092	0.0145 ± 0.12	-0.0625 ± 0.12	-0.048 ± 0.052	-0.079 ± 0.05	-0.0675 ± 0.056	-0.02 ± 0.047	-0.0505 ± 0.023	-0.0895 ± 0.015	-0.0085 ± 0.0064	0.0005 ± 0.018	0.0005 ± 0.0035	-0.236 ± 0.028
HDF3CGF:EGFR	-0.0465 ± 0.033	-0.0025 ± 0.028	0.022 ± 0.054	0.006 ± 0.023	0.001 ± 0.018	-0.0185 ± 0.026	-0.011 ± 0.033	-0.0455 ± 0.03	-0.101 ± 0.026	-0.0145 ± 0.086	-0.043 ± 0.071	-0.039 ± 0.076	0.019 ± 0.014	-0.014 ± 0.0057	-0.018 ± 0.017	0.0125 ± 0.037	0.0135 ± 0.0078	0.032 ± 0.048	0.032 ± 0.075	-0.101 ± 0.023
HDF3CGF:M-CSF	-0.0405 ± 0.067	-0.034 ± 0.071	-0.0205 ± 0.053	0.0115 ± 0.029	0.015 ± 0.0085	0.0535 ± 0.054	-0.0035 ± 0.056	-0.014 ± 0.038	-0.0685 ± 0.04	0.0645 ± 0.053	0.049 ± 0.096	0.0505 ± 0.094	0.0175 ± 0.13	-0.022 ± 0.017	-0.034 ± 0.037	-0.0135 ± 0.094	-0.0095 ± 0.005	-0.01 ± 0.0085	0.0255 ± 0.036	-0.158 ± 0.016
